Measurements from ChEMBL document CHEMBL3507680, “University of Dundee, Gates Library screen for HepG2 cell viability”.

Assay: Human HepG2 cell viability assay in 384 well format
Type: toxicity, cell-based
Set-up: dose 125 nL, time 70.5 hour; cytotoxicity at 70.5 h: concentration not given beside the values
Conditions: HepG2 cells, read-out: Inhibition

Structure (SMILES)	cytotoxicity at 70.5 h [%]
Cn1cc(CN2CCc3onc(COCC4CC4)c3C2)cn1	-12.8
O=c1cc(Cn2ccnc2)nc2n1CCCN(Cc1ccc(F)cc1)C2	-14.3
O=c1cc(Cn2ccnc2)nc2n1CCCN(Cc1ccncc1)C2	-21.3
O=C(Nc1ccccc1)[C@H]1C[C@@H]2CN(C(=O)Nc3ccccc3)C[C@H]1O2	-27.2
CC(=O)N1CCN(C(=O)NC(C)C)CC2(CNC(=O)C2)C1 (stereo not given)	-28.3
CCS(=O)(=O)N1CCN(C(=O)NC(C)C)CC2(CNC(=O)C2)C1 (stereo not given)	-26.5
O=S1(=O)c2ccccc2OCC2(CCN(CCO)CC2)CN1CC1CC1	-0.378
CCS(=O)(=O)N1CCc2cc(C(=O)NC)c(NCC3CC3)nc2CC1	-4.13
COCCCNC(=O)CCn1ncc2c(Cl)cccc21	-7.64
O=C1c2cnc(N3CCCC3)nc2CN1CCc1ccc(Cl)cc1	-6.15
Cc1nn(C)c2cnn(Cc3ccc(C(=O)N4CCN(C)CC4)o3)c12	28.4
CCn1nc(C)c2c1cnn2CCNS(C)(=O)=O	-6.31
CCn1nc(C)c2c1cnn2CCNS(=O)(=O)CC	3.21
CCn1ncc(NC(=O)CCn2ncc3c(Cl)cccc32)c1C	7.52
COCCNC(=O)CCn1ncc2c(Cl)cccc21	16.6
CCn1ccc(NC(=O)CCn2nc(C)c3ccccc32)n1	-10.3
CCn1nc(C)cc1NC(=O)CCn1nc(C)c2ccccc21	-10.1
CN(C)C(=O)c1nnc2ccc(N3CCOCC3)cc2n1	-2.48
O=C(NC1CCCCC1)c1nnc2ccc(N3CCOCC3)cc2n1	-8.08
COCCNC(=O)c1nnc2ccc(N3CCOCC3)cc2n1	23.1
CNC(=O)c1nnc2ccc(N3CCOCC3)cc2n1	-4.03
Cc1nn(C)c(C)c1NC(=O)CCn1ncc2ccccc21	9.95
CCn1ccc(C(=O)Nc2ccc3c(c2)C(C)(C)C(=O)N3C)n1	-15.5

Structure (SMILES)	cytotoxicity at 70.5 h [%]
CCCn1ccc(C(=O)Nc2ccc3c(c2)C(C)(C)C(=O)N3C)n1	13.3
NCc1n[nH]c(-c2ccc(Br)cc2)n1	2.27
CCn1nc(C)c2ncnc(N(C)Cc3ccco3)c21	-1.38
CCn1nc(C)c2ncnc(NCCCn3ccnc3)c21	-9.37
CCN(Cc1ccccc1)c1ncnc2c(C)nn(CC)c12	-4.47
CCn1nc(C)c2nc(C)nc(NC3CCCC3)c21	-7.43
CCn1nc(C)c2nc(C)nc(NCCc3ccccc3)c21	2.39
CCc1nc(NCCCn2cccn2)c2c(n1)c(C)nn2CC	14.8
CCc1nc(Nc2cccc(C(=O)NC)c2)c2c(n1)c(C)nn2CC	-11
CCn1nc(C)c2ncnc(NCCn3cccn3)c21	-1.42
CCCc1nc(NCC(=O)N2CCOCC2)c2c(n1)c(C)nn2CC	44.1
CCCc1nc(NCCOC)c2c(n1)c(C)nn2CC	-7.81
Cc1nn(C)c2c(NC3CCCC3)nc(C3CC3)nc12	-7.15
COc1ccc(CNc2nc(C3CC3)nc3c(C)nn(C)c23)cc1	-0.926
CCn1nc(C)c2nc(C(C)C)nc(NCC(C)O)c21 (stereo not given)	-6.78
CCn1nc(C)c2nc(C(C)C)nc(NCC(C)C)c21	-8.62
CCCc1nc(NCCCOCC)c2c(n1)c(C)nn2CC	-18.2
CCCc1nc(N2CCC(C)CC2)c2c(n1)c(C)nn2CC	-10.6
Cc1nn(C)c2c(N(C)Cc3cccs3)nc(C3CC3)nc12	22.5
Cc1nn(C)c2c(NCc3ccncc3)nc(C3CC3)nc12	3.06
CCn1nc(C)c2nc(C(C)C)nc(NCCc3ccc(O)cc3)c21	-7.1
CSc1ncnc(NCc2ccco2)c1C#N	-12.3
Cc1cccc2c1cnn2CCCNC(=O)c1cnn(C)c1	-2.01

Structure (SMILES)	cytotoxicity at 70.5 h [%]
CCN(CC)C(=O)c1nnsc1-c1ccc(C)cc1	-8.98
Cc1ccc(-c2snnc2C(=O)NCCCO)cc1	-11.1
COc1cc(C(=O)NCCCO)cc2occc12	-9.45
CCOc1cc(C(=O)N2CCN(C)CC2)cc2occc12	3.95
CCOC(=O)N1CCN(C(=O)c2cc(OCC)c3ccoc3c2)CC1	50
CCOC(=O)C1CCN(C(=O)c2cc(OCC)c3ccoc3c2)CC1	-10.7
COCc1cccc(S(=O)(=O)Nc2ncc(C)s2)c1	-12.2
CSCc1cccc(S(=O)(=O)NCc2cnn(C)c2C)c1	-2.3
COCCNS(=O)(=O)c1cccc(CSC)c1	18.6
CSCc1cccc(S(=O)(=O)N2CCCCCC2)c1	-4.01
CSCc1cccc(S(=O)(=O)N2CCCC2)c1	-6.64
CSCc1cccc(S(=O)(=O)N2CCCCC2)c1	-6.14
CCNS(=O)(=O)c1cccc(CSC)c1	5.32
CCN(CC)c1nc(C)cc(C(=O)Nc2cccc(C(N)=O)c2)n1	-7.03
Cc1nn(C(C)C)c2cn(CC(=O)NC3CCSCC3)nc12	-3.25
COc1cccc(CNC(=O)c2cc(C)nc(N3CCCCC3)n2)c1	-9.69
Cc1cc(C(=O)NCc2cnn(C)c2C)nc(N2CCCCCC2)n1	-3.96
CCN1CCN(c2ncc3c(=O)n(Cc4ccco4)ccc3n2)CC1	-5.38
Oc1ccc(Cl)cc1CNCc1ccccc1Cl	-8.63
Oc1ccc(Cl)cc1CNCc1ccccc1C(F)(F)F	-2.09
Oc1ccc(Cl)cc1CNCc1cccc(C(F)(F)F)c1	-12.9
COc1cccc(CNCc2cccc(Cl)c2)c1O	-4.96
COc1cccc(CNCc2ccc(F)cc2Cl)c1O	-1.41

Structure (SMILES)	cytotoxicity at 70.5 h [%]
CSc1nc2ccsc2c(=O)n1CC(=O)NC1CCCCC1	-6.83
CSc1nc2ccsc2c(=O)n1CC(=O)N1CCCCC1C (stereo not given)	-9.11
CSc1nc2ccsc2c(=O)n1CC(=O)N(C)c1ccccc1	-4.9
CCN(CC)C(=O)CSc1nc2cc(C)nc-2c(O)n1CC	6.98
Cc1cc2nc(SCC(=O)N3CCCC3)n(Cc3ccco3)c(O)c-2n1	-8.29
O=C(c1nn[nH]c1Nc1ccc(Cl)cc1)N1CCSCC1	9.23
c1cnc(-c2nn3c(CN4CCCCCC4)nnc3s2)cn1	-8.05
Cc1cc(C(=O)N(C)Cc2cccs2)nc(N2CCOCC2)n1	-0.782
CCC(Oc1ccccc1)c1nn2c(CN(CC)CC)nnc2s1 (stereo not given)	-7.01
Cc1cc2n(n1)[C@@H](C(F)(F)F)C[C@@H](C1CCCN(C(=O)C(C)C)C1)N2 (stereo not given in full)	-3.95
CCCC(=O)N1CCC([C@@H]2C[C@H](C(F)(F)F)n3nc(C)cc3N2)CC1	-6.51
Cc1cc2n(n1)[C@@H](C(F)(F)F)C[C@@H](C1CCN(C(=O)C(C)C)CC1)N2	-1.78
O=C(CCc1cc(Cl)no1)N1CCC(c2cc3ncccc3cn2)CC1	0.563
Cc1cc(C)nc(N2CCC(CNC(=O)c3cnccn3)CC2)n1	3.07
Cc1cc(C)nc(N2CCC(CNC(=O)c3ccccn3)CC2)n1	2.6
CCCN1C[C@H](NC(=O)c2cc(C)no2)[C@@H](c2ccc(OC)cc2)C1	0.817
CC(=O)c1cc(C(=O)N2Cc3ccccc3OC3(CCOCC3)C2)cs1	6.07
Cc1cnc(C(=O)N2Cc3ccccc3OC3(CCOCC3)C2)cn1	1.74
Cc1cnc(C(=O)N2Cc3cc(Cl)ccc3OC3(CCOCC3)C2)cn1	1.54
Nc1nonc1C(=O)N1Cc2ccccc2OC2(CCOCC2)C1	2.48
O=C(CN1CCC(c2cc(=O)n3c(n2)CCCCC3)CC1)N1CCCC1	1.49
CCS(=O)(=O)N1C[C@H]2CC[C@](O)(c3ccc(C)cc3)[C@H]2C1	2.5
Cc1ccc([C@@]2(O)CC[C@@H]3CN(S(=O)(=O)C(C)C)C[C@@H]32)cc1	2.49

Structure (SMILES)	cytotoxicity at 70.5 h [%]
O=C(Cc1ccccn1)N1CCC(c2noc(-c3ccncc3)n2)CC1	5.1
COc1ccccc1C1=NOC(CC2(C(=O)NC(C)C)CCOCC2)C1 (stereo not given)	-4.53
CC(C)CNC(=O)C1(Cc2ccccc2-c2cccs2)CCNC1 (stereo not given)	-0.684
COCCOCC(=O)N1C[C@@H]2CC[C@H](Oc3ccccc3F)[C@@H]2C1	12.1
COCCOCC(=O)N1C[C@@H]2CC[C@H](Oc3cccc(F)c3)[C@@H]2C1	-3.05
Cc1csc2nc3n(c(=O)c12)CCN(Cc1c[nH]cn1)CC3	0.274
COc1ccccc1CNC(Cc1cccs1)c1nc(C)c(C)s1 (stereo not given)	8.5
COc1ccc(CNC(Cc2cccs2)c2nc(C)c(C)s2)cc1OC (stereo not given)	2.99
COc1cccc(CNC(Cc2cccs2)c2nc(C)c(C)s2)c1OC (stereo not given)	-1.23
CCN(C)c1ncnc2c1CCN(C(=O)Cc1ccccn1)CC2	-9.09
CNC(=O)c1cc2c(nc1NCC(C)C)CCN(c1ccncn1)CC2	-0.746
Fc1ccc(CN2CCn3cc(Cn4cccn4)nc3C2)cc1	-20.8
Cc1nc(CN2CC3(CCN(c4ncccn4)C3)CC2=O)cs1 (stereo not given)	-23.8
COc1ncccc1CN1C[C@@H]2COC[C@]2(CNS(C)(=O)=O)C1	-13.2
CNC(=O)c1cc2c(nc1NCC1CC1)CCN(CC1CC1)CC2	-26.7
c1cncc(OCc2noc3c2CN(Cc2ccsc2)CC3)c1	15.9
CCc1ccc(CN2CCCn3c(nc(Cn4ccnc4)cc3=O)C2)o1	-0.664
CNC(=O)CN1CCOCC2(CN(CCC(F)(F)F)CCO2)C1 (stereo not given)	4.91
COc1ccc(CN2CCn3c(CO)nnc3C2)cc1CN1CCCC1	2.95
Cc1ccc(CN(CCCn2ccnc2)Cc2c(F)cccc2F)s1	24
Cc1ccc(CN(CCCn2ccnc2)Cc2cnn(C)c2)s1	25.9
Cc1ccc(O)c(CN(CCCn2ccnc2)Cc2ccc(C)s2)c1	0.701
Cc1ccc(CN(CCCn2ccnc2)Cc2c[nH]nc2C(C)(C)C)s1	-0.375
